The text below walks through data of patent US20240226052A1, “A SPECIFIC COMBINATION OF LIPIDS AND METHODS AND USES RELATED THERETO” (HELSINGIN YLIOPISTO, priority 2021, published 2024).

The structures appear in SMILES notation.

The nature of series [1]: Surface pressure and surface potential isotherms and Brewster angle microscopy at the air-buffer interface. The series is classed as physicochemical. The settings on record: 35 °C; for spreading / monolayer formation on the aqueous surface: PBS. As for the experimental part:
(§1) The lipid species were either synthesized as described above or obtained from commercial sources (e.g. Nu-Check-Prep, Elysian, MN) and studied on their own at first. A wide range of lipid mixtures were prepared by weighing selected compounds at specific ratios and further dilution in chloroform to obtain selected concentrations. A 2 mM concentration of the corresponding mixtures was used in the surface potential and pressure measurements and a 5 mM concentration in the evaporation resistance measurements discussed herein.
The lipid mixtures dissolved in chloroform or the formulations were spread onto the air-buffer interface of either a KSV minitrough (Helsinki, Finland) or a KSV large trough which was filled with PBS buffer. Chloroform was allowed to evaporate for 3 min before starting measurements. The surface pressure was measured using a Wilhelmy plate, the surface potential was measured using a KSV surface potential sensor (Espoo, Finland) and Brewster angle microscopy images were captured using a KSV NIMA microBAM (Espoo, Finland) instrument. The films were compressed at a constant rate of 5 or 10 mm/min and the subphase temperature was kept at 35±1° C. The measurements were performed in an acrylic box under an ozone-free atmosphere to prevent undesired oxidation. An ozone-free atmosphere was generated by passing dry air through ODS-3P ozone destruct unit (Ozone solutions, Hull, Iowa) at a rate of 76 l/min within the enclosure.
The organizational behavior of FAHFA/OAHFA and wax ester mixtures were investigated by measuring surface pressure and surface potential isotherms, and, imaging the monolayer structure with a Brewster angle microscope. A phosphate buffered saline (PBS) solution was used as an in vitro model of the ocular surface and the measurements were conducted at physiological temperature (35° C.). With this model system, it is possible to accurately simulate the conditions residing on the ocular surface and the changes occurring during a blink of the eye, both in terms of surface pressure and the capabilities of the monolayer to respread over many compression-expansion cycles. Thus, the study protocol provides the essential information required for evaluating the suitability of the composition in the intended applications. More details on the study protocol can be found in the inventors' previous publications on the topic (Paananen, Ekholm et. al. in Langmuir 2019, Ocul. Surf. 2020, J. Org. Chem. 2021).

The nature of series [2]: Evaporation resistance of lipid films (modified Langmuir-Schaefer desiccant cartridge method). The series is classed as physicochemical. Conditions: lipid film on PBS, 35 °C; compressed to Mma 2-40 Å^2/molecule. On the procedure: as §1
Evaporation resistance is a property of the lipid film residing on top or above an aqueous surface, independent of the measurement method and conditions of the measurement. […] Evaporation resistance of the lipid film can be determined, for example, by measuring the evaporative flux from the aqueous surface without the lipid layer, Jw, and with a lipid film present, Jf. […] The lipid film evaporation resistance can be expressed as a function of measured quantities as rm=Δc(1/Jf−1/Jw).
In this example, the evaporation resistance was determined according to the method originally developed by Langmuir et al. (Langmuir, I. and Schaefer, V., J. 1943, J. Franklin Inst., Vol. 235, 119-162) although with certain modifications (as set out in Bland et al., Langmuir, 2019, 35, 3545-3552 (Supp. Info.). […]

The term melting point denotes the temperature, or range, at which the solid turns liquid. For the compound `CCCCCCCC/C=C\CCCCCCCC(=O)OCCCCCCCCCCCCCCCCCCCCCCCC(C)C` [Example 5, 24-methylpentacosyl oleate], the melting point lay within 36 to 37.5 °C.
On to `CCCCCCCC/C=C\CCCCCCCC(=O)OCCCCCCCCCCCCCCCCCCCCCC` [BO, behenyl oleate], for which the “spreading / monolayer formation on the aqueous surface” value (“spreading / monolayer formation” below) in series [1] was “did not spread on the aqueous surface but formed solid aggregates instead”.
The compound `CCCCCCCC/C=C\CCCCCCCC(=O)OCCCCCCCCCCCCCCCCCCCC(=O)O` [Example 20-OAHFA, 20-(oleoyloxy)eicosanoic acid] yielded a maximum evaporation resistance in series [2] of 3 to 5 s/cm. The “spreading / monolayer formation” value in series [1] is “form liquid monolayers upon spreading”. In series [1] (pure lipid on PBS), the “mean molecular area at surface pressure lift-off” value was determined as 140 Å^2/molecule and the “surface pressure at transition to a solid monolayer” value was 2 mN/m.
For `CCCCCCCC/C=C\CCCCCCCC(=O)OCCCCCCCCCCCCCCCCCCCC` [AO, arachidyl oleate], the “spreading / monolayer formation” value in series [1] is “form liquid monolayers upon spreading”. Also, the “mean molecular area at surface pressure lift-off” value in series [1] (pure lipid on PBS) came to 70 Å^2/molecule.
